Assay results published in ChEMBL document CHEMBL3832761, “MMV Pathogen Box Bioactivity Data” (2017).

Tests used:
Toxoplasma gondii [1] = test: AntiToxoplasma gondii activity data 2-day killing assay: IC50 (uM), Experiment G; format: functional, organism-based
Toxoplasma gondii [2] = test: AntiToxoplasma gondii activity data 2-day killing assay: inhibition at 10 uM (%) Experiment E; format: functional
[3] = HL60 CC50 (uM) Cytotoxicity; format: functional; conditions: HL-60
Toxoplasma gondii [4] = test: AntiToxoplasma gondii activity data Inhibition of plaque forming efficiency (%) Experiment A; format: functional; design: concentration or dose not given beside the values
Toxoplasma gondii [5] = test: AntiToxoplasma gondii activity data 2-day killing assay: inhibition at 10 uM (%) Experiment D; format: functional
Toxoplasma gondii [6] = test: AntiToxoplasma gondii activity data Inhibition of plaque forming efficiency (%) Experiment B; format: functional; design: concentration or dose not given beside the values
Toxoplasma gondii [7] = test: AntiToxoplasma gondii activity data 2-day killing assay: inhibition at 10 uM (%) Experiment C; format: functional; conditions: 48 h
Toxoplasma gondii [8] = test: AntiToxoplasma gondii activity data 2-day killing assay: IC50 (uM), Experiment F; format: functional, organism-based
CHO = test: CHO CC50 (uM) Cytotoxicity; format: functional; conditions: Cricetulus griseus
HepG2 [9] = test: Cytotoxicity data HepG2 CC20 (uM); format: functional
Wolbachia = test: Anti-Wolbachia activity Reduction in Wolbachia infected cells at 10 uM (%); format: functional, cell-based; design: Activity: scale not given: the % may be the effect or the level left
Onchocerca gutturosa [10] = test: AntiOnchocerca activity O. gutturosa adult males: MTT reduction at 12.5 uM (%); format: functional; design: scale not given: the % may be the effect or the level left
Onchocerca gutturosa [11] = test: AntiOnchocerca activity O. gutturosa adult males: EC50 (uM); format: functional, organism-based
Onchocerca lienalis = test: AntiOnchocerca activity O. lienalis microfilariae Motility reduction (%); format: functional; design: concentration or dose not given beside the values
Onchocerca gutturosa [12] = test: AntiOnchocerca activity O. gutturosa adult males: Motility reduction at 12.5 uM (%); format: functional; design: scale not given: the % may be the effect or the level left
[13] = AntiChikungunya activity HCI CHIKV/Huh7 IC50 (uM); format: functional, Chikungunya virus
HepG2 [14] = test: HepG2 CC50 (uM) Cytotoxicity; format: functional; conditions: Homo sapiens
Dengue virus [15] = test: AntiDengue activity HCI DV2/Huh7 IC50 (uM); format: functional, organism-based; conditions: Huh-7
[16] = HUH7 CC50 (uM) Cytotoxicity; format: functional; conditions: Huh-7
Dengue virus [17] = test: AntiDengue activity HCI DV4/A549 IC50 (uM); format: functional, organism-based
Dengue virus [18] = test: AntiDengue activity HCI DV2/A549 IC50 (uM); format: functional, organism-based
A549 = test: A549 CC50 (uM) Cytotoxicity; format: functional; conditions: Homo sapiens
Dengue virus [19] = test: AntiDengue activity HCI DV1/A549 IC50 (uM); format: functional, organism-based
Dengue virus [20] = test: AntiDengue activity HCI DV3/A549 IC50 (uM); format: functional, organism-based
Brugia malayi = test: AntiBrugia malayi activity Effect on motility; format: functional, organism-based; conditions: Brugia malayi
Ancylostoma ceylanicum [21] = test: microbe, parasite or virus in culture
Ancylostoma ceylanicum [22] = test: microbe, parasite or virus in culture; remark: listed apart in the source
[23] = Toxoplasma gondii, 48 h, read-out: IC50

Cc1cc2nc(NC(=O)C(C)(C)C)nc(Cl)c2n1Cc1ccc(Cl)cc1
IC50 (Toxoplasma gondii [1]): no inhibition
Inhibition (Toxoplasma gondii [2]): 0%
CC50 [3]: > 25 µM
Inhibition (Toxoplasma gondii [4]): ~85%
Inhibition (Toxoplasma gondii [5]): 63.9%
Inhibition (Toxoplasma gondii [6]): ~50%
inhibition at 10 µM (Toxoplasma gondii [7]): 0%
IC50 (Toxoplasma gondii [8]): no inhibition

Nc1ncnc2c1c(-c1cnc3ccccc3c1)nn2CC1CCNCC1
IC50 (Toxoplasma gondii [1]; [23]): 7.55 µM
Inhibition (Toxoplasma gondii [2]): 92.8%
CC50 (CHO): > 50 µM
Inhibition (Toxoplasma gondii [4]): ~60%
Inhibition (Toxoplasma gondii [5]): 72.3%
inhibition at 10 µM (Toxoplasma gondii [7]): 48.8%
IC50 (Toxoplasma gondii [8]; [23]): 6.77 µM

CCc1nc2ccc(C(=O)NCc3ccc4c(c3)OCO4)cn2c1N(C)Cc1cccs1
CC20 (HepG2 [9]): 18.6 µM
Activity (Wolbachia): 45%

CC(C(=O)Nc1ccc2oc(-c3ccncc3)nc2c1)c1ccccc1 (centres undefined)
IC50 (Toxoplasma gondii [1]): no inhibition
Inhibition (Toxoplasma gondii [2]): 1.05%
CC50 [3]: > 50 µM
Inhibition (Toxoplasma gondii [4]): 100%
Inhibition (Toxoplasma gondii [5]): 62.6%
Inhibition (Toxoplasma gondii [6]): ~75%
inhibition at 10 µM (Toxoplasma gondii [7]): 3.75%
IC50 (Toxoplasma gondii [8]): no inhibition

CCS(=O)(=O)N(Cc1ccco1)Cc1cc2ccc(C)cc2nc1O
CC20 (HepG2 [9]): >80 µM
Activity (Wolbachia): 52%

COc1cccn2c(C(=O)N3CCCCC3)c(C(F)(F)F)nc12
CC20 (HepG2 [9]): >80 µM
IC50 (Wolbachia; Wolbachia): 0.5 µM

COC(=O)C1=C(C)NC(C)=C(C(=O)OC(C)C)C1c1cccc2nonc12 (centres undefined) [ISRADIPINE]
CC20 (HepG2 [9]): 66 µM
Activity (Onchocerca gutturosa [10]): 79%
EC50 (Onchocerca gutturosa [11]): 0.89 µM
Activity (Onchocerca lienalis): 53%
Activity (Onchocerca gutturosa [12]): 100%

Oc1c(I)cc(I)c2cccnc12 [IODOQUINOL]
CC20 (HepG2 [9]): 2.53 µM
Activity (Onchocerca gutturosa [10]): 88%
EC50 (Onchocerca gutturosa [11]): 0.46 µM
Activity (Onchocerca lienalis): 93.3%
Activity (Onchocerca gutturosa [12]): 100%

O=C1[C@@H](Oc2ccccc2)[C@@H](c2ccc(Cl)cc2)N1CCn1cnc2c(NCc3ccccc3)ncnc21
IC50 [13]: 6 µM
CC50 (HepG2 [14]): 3 µM
IC50 (Dengue virus [15]): 3 µM
CC50 [16]: 10 µM
IC50 (Dengue virus [17]): 2 µM
IC50 (Dengue virus [18]): 6 µM
CC50 (A549): 40 µM
IC50 (Dengue virus [19]): 3 µM
IC50 (Dengue virus [20]): 4 µM

Cc1cc(C2=NOC(c3cc(Cl)c(F)c(Cl)c3)(C(F)(F)F)C2)ccc1C(=O)NCc1ccc2c(c1)C(C)(C)OB2O (centres undefined)
CC20 (HepG2 [9]): 10.9 µM
IC50 (Brugia malayi): 3.04 µM

CC(C)(C)OC(=O)N1CCC(Cn2nc(-c3cnc4ccccc4c3)c3c(N)ncnc32)CC1
Inhibition (Toxoplasma gondii [2]): 0%
CC50 [3]: > 50 µM
Inhibition (Toxoplasma gondii [4]): 100%
Inhibition (Toxoplasma gondii [5]): 36.1%
Inhibition (Toxoplasma gondii [6]): ~75%
inhibition at 10 µM (Toxoplasma gondii [7]): 1.88%

CN1CCCC1CCO[C@](C)(c1ccccc1)c1ccc(Cl)cc1 (some centres undefined)
CC20 (HepG2 [9]): 9.28 µM
inhibition at 200 µM (Ancylostoma ceylanicum [21]): 76%
inhibition at 50 µM (Ancylostoma ceylanicum [22]): 47%
